Results taken from patent US10752900B2, “Oligonucleotides for modulating gene expression and uses thereof” (BIOGENERA S.P.A., priority 2012, dated 2020).

What was measured:
Kelly cells = assay: Cellular proliferation assay (ATP-Lite), Kelly cells; type: cell-based, human; conditions: 2.5 μM
Procedure: For the purpose of assessing the gene modulation ability of the oligonucleotides of the present invention, the effect of their administration on cell viability was determined.
(§1) For this purpose 5×10^3 cells per well were seeded into 96-well cell culture plates (experiments conducted in triplicate) with 100 μl of OPTI-MEM (GIBCO BRL) medium containing 4% FBS and 2 mM of L-glutammine.
The PNA oligonucleotides were administered at different concentrations (1 μM-2.5 μM-5 μM-10 μM) in order to observe a dose-effect relationship.
As regards all the other oligonucleotides, the concentrations at which they administered are listed in the paragraph:
The viability of the treated cells was determined at 48, 72, 96 and 168 hours after treatment.
(§2) Cell viability was assessed by means of an ATP-Lite assay (Luminescence ATP Detection Assay System, PerkinElmer) and is reported as the ratio between the average signal of the treated wells compared to the average value of the wells of untreated control cells. The cells were processed following the instructions provided with the kit.
The assays were performed on the same cell lines used to determine the levels of the MYCN gene messenger and listed in the paragraph: Treatments with Oligonucleotides—QT-PCR.
As far as the PNA oligonucleotides are concerned, the results regarding their ability to inhibit the transcription of the MYCN gene and proliferation of Kelly cells are shown in Table 1.
(§3) The ability of the tested oligonucleotides to inhibit the messenger of the gene of interest was measured and the proliferative capacity of the cells following administration of the oligonucleotides was also assessed.

PLK4 = assay: QT-PCR, PLK4 mRNA in Kelly cells; type: cell-based, human; conditions: Table 11; PLKA4, Kelly cells; 2.5 μM
Procedure: (§4) For the purpose of assessing the ability of the oligonucleotides of the present invention to modulate the expression of the target genes, their ability to reduce the quantity of messenger RNA was analyzed using the Real-Time PCR technique.
(§5) The cells were treated with the oligonucleotides, adding FBS up to 4% 6 hours after administration of the same. After 24 hours the total RNA was extracted from each well and purified using the RNeasy Mini Kit (QIAGEN).
(§6) As a control, use was made of the same cell lines as listed above treated with sterile water instead of oligonucleotides. Each RNA sample was quantified (in duplicate) using a NanoDrop ND-1000 spectrophotometer (NanoDrop Technologies). The first strand of cDNA was produced using the cDNA Synthesis Kit for RT-PCR (Roche). For the cDNA synthesis reaction a total of 1 μg of RNA was used. For the real-time PCR, 10 ng of cDNA in a final volume of 20 μl was used with SYBR Green Master Mix 2× (Applied Biosystems) (3 identical experiments were conducted in triplicate). Two housekeeping genes were used as positive controls: GAPDH and beta-actin (ACTB). […]
as §3

BIRC5 = assay: QT-PCR, BIRC5 mRNA in Kelly cells; type: cell-based, human; conditions: Table 11, 2.5 μM
Procedure: as §4, §5, §6, §3

BCL2 = assay: QT-PCR, BCL2 mRNA in Kelly cells; type: cell-based, human; conditions: Table 11, 2.5 μM
Procedure: as §4, §5
(§7) As a control, use was made of the same cell lines as listed above treated with sterile water instead of oligonucleotides. Each RNA sample was quantified (in duplicate) using a NanoDrop ND-1000 spectrophotometer (NanoDrop Technologies). The first strand of cDNA was produced using the cDNA Synthesis Kit for RT-PCR (Roche). For the cDNA synthesis reaction a total of 1 μg of RNA was used. For the real-time PCR, 10 ng of cDNA in a final volume of 20 μl was used with SYBR Green Master Mix 2× (Applied Biosystems) (3 identical experiments were conducted in triplicate). Two housekeeping genes were used as positive controls: GAPDH and beta-actin (ACTB).
(§8) The conditions of the QT-PCR reaction were: 10 min at 95° C., 20 sec at 95° C., and 30 sec at 60° C., for 50 cycles.
(§9) The oligonucleotides were tested in vitro (at a concentration of 2.5 μM) to determine their ability to inhibit the transcription of the gene they are directed against by measuring the levels of the gene messenger in cellular models in which the gene of interest is overexpressed. The methods used are the ones described in example 1. […]
as §3

H82 = assay: Cellular proliferation, H82 cells; type: cell-based; conditions: Table 11, MYC-directed PNA, 2.5 μM
Procedure: as §1, §2
(§10) The oligonucleotides were tested in vitro (at a concentration of 2.5 μM) to determine their ability to inhibit the transcription of the gene they are directed against by measuring the levels of the gene messenger in cellular models in which the gene of interest is overexpressed. The methods used are the ones described in example 1.
(§11) In particular, SEQ ID NO: 66-69 (directed against MYCN) were tested in vitro in the Kelly and H69 cell lines; SEQ ID NO: 70-74 (directed against MYC) were tested in vitro in the H82 and RD cell lines, SEQ ID NO: 75, 76 (directed against BIRC5) were tested in vitro in the Kelly cell line, SEQ ID NO: 77-79 (directed against ALK) were tested in vitro in the Kelly cell line, SEQ ID NO: 80-82 (directed against BCL2) were tested in vitro in the Kelly cell line and SEQ ID NO: 83, 84 (directed against PLK4) were tested in vitro in the Kelly cell line.
as §3

MYC [1] = assay: QT-PCR, MYC mRNA in H82 cells; type: cell-based; conditions: Table 11, 2.5 μM
Procedure: as §4, §5, §7, §8, §10, §11, §3

RD = assay: Cellular proliferation, RD cells; type: cell-based; conditions: Table 11, MYC-directed PNA, 2.5 μM
Procedure: as §1, §2, §10, §11, §3

MYC [2] = assay: QT-PCR, MYC mRNA in RD cells; type: cell-based; conditions: Table 11, 2.5 μM
Procedure: as §4, §5, §7, §8, §10, §11, §3

ALK = assay: QT-PCR, ALK mRNA in Kelly cells; type: cell-based, human; conditions: Table 11, 2.5 μM
Procedure: as §4, §5, §7, §8, §9, §3

| Substance | Cell Prolif. (%) (H82) | mRNA inhibit. (%) (MYC [1]) | Cell Prolif. (%) (RD) | mRNA inhibit. (%) (MYC [2]) | also measured |
| --- | --- | --- | --- | --- | --- |
| SEQ ID NO: 84: PNA GGACGGCAAGCGGCGG directed against PLK4 (all peptide nucleic acid (PNA); antigene PNA) |  |  |  |  | Cell Prolif. (%) (Kelly cells; Table 11, PLK4-directed PNA): 49%; mRNA inhibit. (%) (PLK4): 74% |
| SEQ ID NO: 76: PNA GGCGGCGGCATGGGTG directed against BIRC5 (all peptide nucleic acid (PNA); antigene PNA) |  |  |  |  | Cell Prolif. (%) (Kelly cells; Table 11, BIRC5-directed PNA): 35%; mRNA inhibit. (%) (BIRC5): 78% |
| SEQ ID NO: 81: PNA GGGAAGGATGGCGCAC directed against BCL2 (all peptide nucleic acid (PNA); antigene PNA) |  |  |  |  | mRNA inhibit. (%) (BCL2): 62%; Cell Prolif. (%) (Kelly cells; Table 11, BCL2-directed PNA): 58% |
| SEQ ID NO: 71: PNA GCGGCCGGCTAGGGTG directed against MYC (all peptide nucleic acid (PNA); antigene PNA) | 75 | 46 | 65 | 42 |  |
| SEQ ID NO: 80: PNA GGATGGCGCACGCTGG directed against BCL2 (all peptide nucleic acid (PNA); antigene PNA) |  |  |  |  | mRNA inhibit. (%) (BCL2): 59%; Cell Prolif. (%) (Kelly cells; Table 11, BCL2-directed PNA): 62% |
| SEQ ID NO: 72: PNA CGGCCGGCTAGGGTGG directed against MYC (all peptide nucleic acid (PNA); antigene PNA) | 64 | 52 | 53 | 58 |  |
| SEQ ID NO: 73: PNA CGACGGCGGTGGCGGG directed against MYC (all peptide nucleic acid (PNA); antigene PNA) | 65 | 56 | 51 | 59 |  |
| SEQ ID NO: 75: PNA GCGGCGGCATGGGTGC directed against BIRC5 (all peptide nucleic acid (PNA); antigene PNA) |  |  |  |  | Cell Prolif. (%) (Kelly cells; Table 11, BIRC5-directed PNA): 43%; mRNA inhibit. (%) (BIRC5): 69% |
| SEQ ID NO: 70: PNA CTCAGAGGCTTGGCGG directed against MYC (all peptide nucleic acid (PNA); antigene PNA) | 79 | 43 | 73 | 34 |  |
| SEQ ID NO: 83: PNA ACGGCAAGCGGCGGGA directed against PLK4 (all peptide nucleic acid (PNA); antigene PNA) |  |  |  |  | Cell Prolif. (%) (Kelly cells; Table 11, PLK4-directed PNA): 59%; mRNA inhibit. (%) (PLK4): 62% |
| SEQ ID NO: 82: PNA CCACGGTGGTGGAGGA directed against BCL2 (all peptide nucleic acid (PNA); antigene PNA) |  |  |  |  | mRNA inhibit. (%) (BCL2): 68%; Cell Prolif. (%) (Kelly cells; Table 11, BCL2-directed PNA): 55% |
| SEQ ID NO: 79: PNA GGCAGGAGAGGACGGT directed against ALK (all peptide nucleic acid (PNA); antigene PNA) |  |  |  |  | Cell Prolif. (%) (Kelly cells; Table 11, ALK-directed PNA): 39%; mRNA inhibit. (%) (ALK): 79% |
| SEQ ID NO: 78: PNA CAGGAGAGGACGGTAC directed against ALK (all peptide nucleic acid (PNA); antigene PNA) |  |  |  |  | Cell Prolif. (%) (Kelly cells; Table 11, ALK-directed PNA): 46%; mRNA inhibit. (%) (ALK): 68% |
| SEQ ID NO: 74: PNA GGACGGGGGCGGTGGA directed against MYC (all peptide nucleic acid (PNA); antigene PNA) | 61 | 61 | 47 | 64 |  |
| SEQ ID NO: 77: PNA GCAGGAGAGGACGGTA directed against ALK (all peptide nucleic acid (PNA); antigene PNA) |  |  |  |  | Cell Prolif. (%) (Kelly cells; Table 11, ALK-directed PNA): 55%; mRNA inhibit. (%) (ALK): 57% |
